Experimental findings from patent US20070197549A1, “Tetrazole compounds and their use as metabotropic glutamate receptor antagonists” (AstraZeneca AB, priority 2004, published 2007) are described below.

The target in this test is T1, human mGluR5d (Homo sapiens, UniProt P41594).
T1 construct: expressed in transfected cells; GHEK cells stably expressing human mGluR5d are named only for the IP3 assay
Kind of test: FLIPR analysis of [Ca2+]i mobilization in cells expressing human mGluR5d. The format is cell-based. On the procedure: For FLIPR analysis, cells expressing human mGluR5das described in WO97/05252 were seeded on collagen coated clear bottom 96-well plates with black sides and analysis of [Ca^2+]i mobilization was done 24 h after seeding.
FLIPR experiments were done using a laser setting of 0.800 W and a 0.4 second CCD camera shutter speed. Each FLIPR experiment was initiated with 160 μl of buffer present in each well of the cell plate. After each addition of the compound, the fluorescence signal was sampled 50 times at 1 second intervals followed by 3 samples at 5 second intervals. Responses were measured as the peak height of the response within the sample period. EC50 and IC50 determinations were made from data obtained from 8-point concentration response curves (CRC) performed in duplicate. Agonist CRC were generated by scaling all responses to the maximal response observed for the plate. […]
FLIPR experiments were done using a laser setting of 0.800 W and a 0.4 second CCD camera shutter speed with excitation and emission wavelengths of 488 nm and 562 nm, respectively. […] After each addition the fluorescence signal was sampled 50 times at 1 second intervals followed by 3 samples at 5 second intervals. Responses were measured as the peak height of the response within the sample period. […]

T1 sequence (P41594 21-942 isoform P41594-3 limits assumed): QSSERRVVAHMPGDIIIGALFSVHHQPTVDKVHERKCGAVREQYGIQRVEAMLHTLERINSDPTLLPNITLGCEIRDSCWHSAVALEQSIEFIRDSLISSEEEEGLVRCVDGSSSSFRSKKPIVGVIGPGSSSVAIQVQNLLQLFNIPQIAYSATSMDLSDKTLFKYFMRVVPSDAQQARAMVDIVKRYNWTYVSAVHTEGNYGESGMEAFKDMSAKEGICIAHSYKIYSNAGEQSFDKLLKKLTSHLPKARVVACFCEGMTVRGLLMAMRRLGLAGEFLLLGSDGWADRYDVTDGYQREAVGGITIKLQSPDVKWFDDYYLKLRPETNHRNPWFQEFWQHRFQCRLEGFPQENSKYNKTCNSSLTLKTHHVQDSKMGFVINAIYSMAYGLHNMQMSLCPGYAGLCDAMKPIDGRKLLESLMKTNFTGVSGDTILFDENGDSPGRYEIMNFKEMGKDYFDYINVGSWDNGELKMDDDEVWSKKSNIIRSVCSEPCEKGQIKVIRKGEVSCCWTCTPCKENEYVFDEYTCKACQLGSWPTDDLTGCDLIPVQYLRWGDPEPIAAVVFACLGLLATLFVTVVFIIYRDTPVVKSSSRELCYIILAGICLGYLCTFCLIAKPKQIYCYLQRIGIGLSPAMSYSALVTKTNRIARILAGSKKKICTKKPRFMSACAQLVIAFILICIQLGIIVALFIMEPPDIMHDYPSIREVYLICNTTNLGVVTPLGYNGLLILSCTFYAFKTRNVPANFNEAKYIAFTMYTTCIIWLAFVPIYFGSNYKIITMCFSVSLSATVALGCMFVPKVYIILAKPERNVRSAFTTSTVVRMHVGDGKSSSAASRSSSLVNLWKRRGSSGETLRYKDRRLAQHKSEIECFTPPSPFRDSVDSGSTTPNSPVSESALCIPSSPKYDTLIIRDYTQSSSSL

Consider `CC(Sc1nnc(-c2ccncc2)n1C)c1nnn(-c2cc(Cl)ccc2F)n1` (centres unmarked) [4-(5-{1-[2-(5-Chloro-2-fluoro-phenyl)-2H-tetrazol-5-yl]-ethylsulfanyl}-4-methyl-4H-[1,2,4]triazol-3-yl)-pyridine], for which half-maximal inhibition (IC50) was put at 55 nM.

As for `CCOC(=O)N1CCN(C(C)c2nnn(-c3cccc(Cl)c3)n2)CC1` (centres unmarked) [Ethyl 4-{1-[2-(3-chlorophenyl)-2H-tetrazol-5-yl]ethyl}piperazine-1-carboxylate], the IC50 was 132 nM.

As a reminder, the IC50 is the concentration that inhibits the measured activity by half. High values mean weaker potency, low ones greater potency.
